Assay results reported in a melting point compilation (Tetko et al.).

Row | Structure (SMILES) | melting point [°C]
1 | O=Cc1cc(Cl)cc(Cl)c1Cl | 72 to 76
2 | O=[N+]([O-])c1ccc2c(c1)OCCOCCOCCOCCO2 | 95 to 98
3 | CCOC(=O)c1c(NC(=O)CN2CCN(C(=O)OCC)CC2)sc2c1CCCC2 | 122 to 123
4 | CN1CCNC(=O)CCSCCC1=O | 185 to 187
5 | CCCc1c(O)c(C(C)=O)cc(C(C)=O)c1O | 99 to 100
6 | O=[N+]([O-])c1ccc(CCBr)cc1 | 69
7 | CC(O)CC(C)(C)C (centres undefined) | -60
8 | O=S1(=O)CCCCO1 | 13.5
9 | CCCCCCCCCCCCCCS | 7
10 | Cc1c(C)c(C)c(C=O)c(C)c1C | 146 to 148
11 | CN1C2CCC1CC(O)C2 (centres undefined) | 109
12 | CC(=CC(=O)O)C1CCCCC1 | 85.5
13 | CC(=O)OC[C@@H](OC(C)=O)[C@H](OC(C)=O)[C@H](OC(C)=O)[C@@H](OC(C)=O)C(=O)CBr | 123 to 125
14 | CC1=C(O)C(=O)CC1 | 106
15 | CC(C)(C)C(=O)OCC(=O)C1(O)CCC2C3CCC4=CC(=O)C=CC4(C)C3C(O)CC21C (centres undefined) | 233
16 | CCCCCCCCCCCCCC(=O)Nc1ccccc1 | 82 to 87
17 | O=C(O)c1cc([N+](=O)[O-])ccc1N1CCOCC1 | 166 to 172
18 | CCCCCCCC(=O)OC | -40
19 | C=C1C(=O)OC2CC(C)C3C=CC(=O)C3(C)C(O)C12 (centres undefined) | 168
20 | FC(F)(F)C#CC(F)(F)F | -117
21 | O=S1(=O)OCC2C(CO1)C1(Cl)C(Cl)=C(Cl)C2(Cl)C1(Cl)Cl (centres undefined) | 182

Row | Structure (SMILES) | melting point [°C]
22 | COC(=O)c1ccc(N2N=N2)cc1 | 40
23 | COC1=C(O)C(=O)C(C)=C(O)C1=O | 202
24 | CCOC(=O)CN1CCN(C(=O)C=Cc2cc(OC)c(OC)c(OC)c2)CC1 | 96
25 | O=C1CN2CCOC2(c2ccccc2F)c2cc(Br)ccc2N1 (centres undefined) | 185
26 | c1ccc2c(c1)Sc1ccccc1N2CC1CN2CCC1CC2 (centres undefined) | 130
27 | N[C@@H](CCC(=O)N[C@@H](CCC(=O)O)C(=O)O)C(=O)O | 179 to 182
28 | CCCCCCCCC=CCCCCCCCCCCCCO | 35
29 | CCC1(CC)C(=O)C=CNC1=O | 90.7
30 | CC(C)NC(=S)NC(C)C | 144
31 | N=C(N)NOCCC(N)C(=O)O (centres undefined) | 184
32 | c1cc2c(cc1N1N=N1)OCO2 | 129
33 | O=C(O)C(Cl)Cl | 13.5
34 | CC(=O)OC(C)=O | -73
35 | N#CC(C#N)=NNc1cc(Cl)cc(Cl)c1 | 192 to 194
36 | CCCCCF | -120
37 | O=C1NCC(CCl)O1 (centres undefined) | 101 to 105
38 | OC[C@H]1O[C@@H](n2cnc3c(Cl)ncnc32)[C@H](O)[C@@H]1O | 161 to 163
39 | CCOC(CC(OCC)OCC)OCC | -90
40 | N#Cc1c(F)c(F)cc(F)c1F | 34
41 | Cc1cccc(N=Nc2ccc(N(C)C)cc2)c1 | 138

Further lines, results first:

Row | melting point [°C] | Structure (SMILES)
42 | 160 | O=C(O)COc1nn(Cc2ccccc2)c2ccccc12
43 | 101 to 103 | OCc1cc2cc(Br)ccc2o1
44 | 100 | COc1ccc(Cl)cc1C#N
45 | 223 | Cc1cc(=O)oc2cc(OC3OCC(O)C(O)C3O)ccc12 (centres undefined)
46 | 93 | COc1ccccc1OCC(O)COC(N)=O (centres undefined)
47 | 48 to 49 | Cn1nc(C(=O)Cl)cc1-c1cccs1
48 | 75 to 80 | Cc1ccc(S(=O)(=O)n2ccnc2)cc1
49 | 75 | O=[N+]([O-])c1ccccc1Nc1ccccc1
50 | 30 | Nc1ccc(OC(F)(F)F)c(Cl)c1
51 | 120 to 121 | OCc1csc(-c2cccnc2)n1
52 | 6 | c1ccc(CCCc2ccccc2)cc1
53 | 192 | CC(=O)Nc1ccc(C=Cc2ccccc2)c([N+](=O)[O-])c1
54 | 150 to 153 | O=C(O)c1ccc(Oc2cccnc2)o1
55 | -17.5 | Brc1ccsc1Br
56 | 224 | Nc1nnc(C(F)(F)F)s1
57 | 163 | c1cc2c3c(ccc2c2c1CC2)CC3
58 | 102 to 104 | Cc1noc(-c2ccc(CO)cc2)n1
59 | 238 | CC1(C)OC(=O)C(=NNc2ccc(O)cc2)C(=O)O1
60 | 127 to 128 | O=C1C=CC(=O)[C@@H]2Cc3ccccc3C[C@H]12
61 | 60 to 61 | COC(=O)c1cc(C(C)=O)ccc1O
62 | 142 | Cc1cc(=S)cc(C)o1
63 | 118 to 130 | Nc1cccnc1O
64 | 109 to 111 | CSc1ncc(CO)n1Cc1ccccc1
65 | 106 to 108 | N#Cc1ccc(N2CCCC2)cn1
66 | 224 | CC(=O)Oc1c(-c2ccccc2)[nH]c2cc([N+](=O)[O-])c(/C=C/c3ccccc3)cc12
67 | 220 | O=C(O)c1cccnc1Sc1ccc(Cl)cc1
68 | 285 | O=c1n(-c2ccccc2)c(=O)n(-c2ccccc2)c(=O)n1-c1ccccc1

Row | melting point [°C] | Structure (SMILES)
69 | 305 to 306 | N#C/C(=C\c1ccc(F)cc1)c1nc2ccccc2c(=O)[nH]1
70 | 65 to 66 | OCc1cccc(-c2cncnc2)c1
71 | 81 to 82 | CCOc1nc2ccccc2c(=O)n1CCO
72 | 140 to 141 | Cc1nc(-c2ccc(N)cc2)cs1
73 | 204 | O=C(/C(=N/O)c1ccccc1)c1ccc2c3c(cccc13)CC2
74 | 204 to 208 | O=Cc1ccc(-c2ccc([N+](=O)[O-])cc2)o1
75 | 185 | O=C1/C(=N/Nc2ccc(F)cc2)C(C(F)(F)F)=NN1c1ccccc1
76 | 179 to 182 | O=C(O)c1cc(F)ccc1O
77 | 79 | CCN(C(=O)N(CC)c1ccccc1)c1ccccc1
78 | 242 | CC(=O)Oc1ccc(C2(c3ccc(OC(C)=O)cc3)C(=O)Nc3ccccc32)cc1
79 | 78 to 80 | O=S(=O)(c1ccccc1)n1ccc2ccccc21
80 | 213 to 216 | NNC(=O)CSc1ccnc2cc(Cl)ccc12
81 | 219 | O=C(O)c1ccc(N/N=C(\C(=O)c2cccs2)C(=O)C(F)(F)F)cc1
82 | 110 | c1ccc2c(Oc3cccc4ccccc34)cccc2c1
83 | 52 to 53 | O=Cc1ccc2c(c1)OCCO2
84 | 102 to 104 | CSc1nc(N)nc(C(C)(C)C)n1
85 | 55 to 56 | CN1CCN(C)c2cc(Br)ccc21
86 | 94 | O=C=Nc1cc([N+](=O)[O-])ccc1Cl
87 | 215 to 217 | S=C(NN=Cc1c(-c2ccc(Cl)cc2)[nH]c2ccccc12)Nc1ccc(Cl)cc1
88 | 129 to 132 | CC(C)(C)OC(=O)NCCNc1ccc(C(F)(F)F)cc1N
89 | 164 to 165 | COc1ccc(C2c3cc(OC)c(OC)cc3CCN2C(C)=O)cc1OC (centres undefined)
90 | 208 to 210 | O=C(c1ccccc1)c1cnc2ccc(Br)cn2c1=O
91 | 122 | O=C1/C(=C\c2ccc(Cl)cc2)SC(=S)N1CN1CCCCC1
92 | 247 | Nc1ccc(N=Nc2ccc([N+]([O-])=Nc3ccc(N)cc3)cc2)cc1
93 | 149 | O=C(O)COc1ccc(C(=O)c2cccs2)c(Cl)c1Cl
94 | 38 to 40 | O=S1(=O)c2cccc3cccc(c23)N1CCCCCl
